Measured values reported in PubChem BioAssay (NCI).
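In this assay, cells in 96-well plates receive the compound at five concentrations for 48 hours. Endpoints are linearly interpolated between the surrounding concentrations. Here, GI50 denotes the concentration required for 50% inhibition of growth. Definition used: TGI = concentration required for complete inhibition of growth.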

Legend:
Test in all cases: NCI anticancer screen, dose series, 48 h
K-562 leukemia = test system: K-562 leukemia
MALME-3M melanoma = test system: MALME-3M melanoma
TK-10 renal = test system: TK-10 renal
SF-268 CNS = test system: SF-268 CNS
UO-31 renal = test system: UO-31 renal
NCI-H522 lung = test system: NCI-H522 lung
PC-3 prostate = test system: PC-3 prostate
SNB-75 CNS = test system: SNB-75 CNS
UACC-257 melanoma = test system: UACC-257 melanoma
SN12C renal = test system: SN12C renal
HCT-116 colon = test system: HCT-116 colon
OVCAR-8 ovarian = test system: OVCAR-8 ovarian
SF-295 CNS = test system: SF-295 CNS
KM12 colon = test system: KM12 colon
DU-145 prostate = test system: DU-145 prostate
SK-OV-3 ovarian = test system: SK-OV-3 ovarian
NCI-H23 lung = test system: NCI-H23 lung
RPMI-8226 leukemia = test system: RPMI-8226 leukemia
T-47D breast = test system: T-47D breast
SW-620 colon = test system: SW-620 colon
RXF 393 renal = test system: RXF 393 renal
NCI-H460 lung = test system: NCI-H460 lung
SF-539 CNS = test system: SF-539 CNS
OVCAR-5 ovarian = test system: OVCAR-5 ovarian
HT29 colon = test system: HT29 colon
OVCAR-4 ovarian = test system: OVCAR-4 ovarian
HOP-62 NSCLC = test system: HOP-62 NSCLC
MDA-MB-435 = test system: MDA-MB-435
NCI-H226 lung = test system: NCI-H226 lung
IGROV1 ovarian = test system: IGROV1 ovarian
A498 renal = test system: A498 renal
HS 578T breast = test system: HS 578T breast
SK-MEL-2 melanoma = test system: SK-MEL-2 melanoma
CCRF-CEM leukemia = test system: CCRF-CEM leukemia
OVCAR-3 ovarian = test system: OVCAR-3 ovarian
UACC-62 melanoma = test system: UACC-62 melanoma
MOLT-4 leukemia = test system: MOLT-4 leukemia
SK-MEL-28 melanoma = test system: SK-MEL-28 melanoma
HOP-92 NSCLC = test system: HOP-92 NSCLC
LOX IMVI melanoma = test system: LOX IMVI melanoma
SNB-19 CNS = test system: SNB-19 CNS
BT-549 breast = test system: BT-549 breast
U251 CNS = test system: U251 CNS
M14 melanoma = test system: M14 melanoma
HCC-2998 colon = test system: HCC-2998 colon
HL-60(TB) leukemia = test system: HL-60(TB) leukemia
SK-MEL-5 melanoma = test system: SK-MEL-5 melanoma
MDA-MB-231 breast = test system: MDA-MB-231 breast
CAKI-1 renal = test system: CAKI-1 renal
HCT-15 colon = test system: HCT-15 colon
SR leukemia = test system: SR leukemia
COLO 205 colon = test system: COLO 205 colon
A549 NSCLC = test system: A549 NSCLC
NCI/ADR-RES ovarian = test system: NCI/ADR-RES ovarian
786-0 renal = test system: 786-0 renal
EKVX NSCLC = test system: EKVX NSCLC
MCF7 breast = test system: MCF7 breast
ACHN renal = test system: ACHN renal

## COc1cc2ncnc(Nc3cccc(Cl)c3F)c2cc1OC(=O)N1CCN(C)C[C@H]1C
K-562 leukemia
  GI50: > 30.7 µM
  TGI: > 63.9 µM
MALME-3M melanoma
  GI50: > 39.5 µM
  TGI: > 60.6 µM
TK-10 renal
  GI50: 0.18 µM
  TGI: 20 µM
SF-268 CNS
  GI50: > 37.1 µM
  TGI: > 75.3 µM
UO-31 renal
  GI50: 6.89 µM
  TGI: > 50.2 µM
NCI-H522 lung
  GI50: 0.523 µM
  TGI: > 31.3 µM
PC-3 prostate
  GI50: 35.3 µM
  TGI: > 93.3 µM
SNB-75 CNS
  GI50: 10.8 µM
  TGI: > 50.1 µM
UACC-257 melanoma
  GI50: > 41.1 µM
  TGI: > 59.2 µM
SN12C renal
  GI50: 40.5 µM
  TGI: > 100 µM
HCT-116 colon
  GI50: > 38.5 µM
  TGI: > 56.9 µM
OVCAR-8 ovarian
  GI50: > 40.9 µM
  TGI: > 77.9 µM
SF-295 CNS
  GI50: > 38.1 µM
  TGI: > 56 µM
KM12 colon
  GI50: > 50.5 µM
  TGI: > 88.5 µM
DU-145 prostate
  GI50: 7.35 µM
  TGI: > 100 µM
SK-OV-3 ovarian
  GI50: 1.12 µM
  TGI: > 32.1 µM
NCI-H23 lung
  GI50: > 47.5 µM
  TGI: 97.3 µM
RPMI-8226 leukemia
  GI50: > 42.6 µM
  TGI: > 68.2 µM
T-47D breast
  GI50: 2.47 µM
  TGI: > 45.5 µM
SW-620 colon
  GI50: > 44.9 µM
  TGI: > 69.7 µM
RXF 393 renal
  GI50: > 34.4 µM
  TGI: > 50.8 µM
NCI-H460 lung
  GI50: > 48.8 µM
  TGI: > 82.4 µM
SF-539 CNS
  GI50: > 40.4 µM
  TGI: > 58.9 µM
OVCAR-5 ovarian
  GI50: > 32.7 µM
  TGI: > 90.8 µM
HT29 colon
  GI50: > 38.4 µM
  TGI: > 64.9 µM
OVCAR-4 ovarian
  GI50: > 44.5 µM
  TGI: > 79.1 µM
HOP-62 NSCLC
  GI50: > 35.7 µM
  TGI: > 66.3 µM
MDA-MB-435
  GI50: > 40.7 µM
  TGI: > 59.7 µM
NCI-H226 lung
  GI50: > 45.9 µM
  TGI: > 75.6 µM
IGROV1 ovarian
  GI50: 0.888 µM
  TGI: > 63.9 µM
A498 renal
  GI50: 3.44 µM
  TGI: > 45.1 µM
HS 578T breast
  GI50: 21 µM
  TGI: > 60.8 µM
SK-MEL-2 melanoma
  GI50: > 43.6 µM
  TGI: > 61.1 µM
CCRF-CEM leukemia
  GI50: > 55.9 µM
  TGI: > 100 µM
OVCAR-3 ovarian
  GI50: > 33.6 µM
  TGI: > 61.8 µM
UACC-62 melanoma
  GI50: > 40.7 µM
  TGI: > 65.5 µM
MOLT-4 leukemia
  GI50: > 46.2 µM
  TGI: > 81.3 µM
SK-MEL-28 melanoma
  GI50: > 42.2 µM
  TGI: > 65.5 µM
HOP-92 NSCLC
  GI50: 14.2 µM
  TGI: > 54.8 µM
LOX IMVI melanoma
  GI50: > 36.5 µM
  TGI: > 53.8 µM
SNB-19 CNS
  GI50: > 44.8 µM
  TGI: > 100 µM
BT-549 breast
  GI50: > 42.2 µM
  TGI: > 67.2 µM
U251 CNS
  GI50: > 44.2 µM
  TGI: > 64.5 µM
M14 melanoma
  GI50: > 40.9 µM
  TGI: > 62.8 µM
HCC-2998 colon
  GI50: > 45.4 µM
  TGI: > 70 µM
HL-60(TB) leukemia
  GI50: > 47.3 µM
  TGI: > 70.5 µM
SK-MEL-5 melanoma
  GI50: > 39.8 µM
  TGI: > 56.9 µM
MDA-MB-231 breast
  GI50: 25.3 µM
  TGI: > 59.5 µM
CAKI-1 renal
  GI50: 0.555 µM
  TGI: > 54.1 µM
HCT-15 colon
  GI50: > 41.4 µM
  TGI: > 88.8 µM
SR leukemia
  GI50: > 45.8 µM
  TGI: > 71.8 µM
COLO 205 colon
  GI50: > 38.1 µM
  TGI: > 58.1 µM
A549 NSCLC
  GI50: > 34.3 µM
  TGI: > 58.2 µM
NCI/ADR-RES ovarian
  GI50: > 36.3 µM
  TGI: > 75.2 µM
786-0 renal
  GI50: > 34.2 µM
  TGI: > 53.3 µM
EKVX NSCLC
  GI50: 0.253 µM
  TGI: > 61.2 µM
MCF7 breast
  GI50: > 39 µM
  TGI: > 77.3 µM
ACHN renal
  GI50: 0.273 µM
  TGI: > 46.3 µM
